{
  "source": "paper PMC3389233",
  "about": "(Bioorganic & medicinal chemistry, 2012)",
  "origin": "cited, not measured here",
  "target": "HPPK",
  "note": "Where two headings read alike, the source gives them in different places.",
  "data": [
    {"smiles": "Nc1nc2c(c(=O)[nH]1)N=C(CO)CN2", "note": "[HP, 6-hydroxymethyl-7,8-dihydropterin]", "values": [
      {"measurement": "Kd", "setting": "rapid addition of HP after MgATP binding", "value": "sub-µM range"}
    ]},
    {"smiles": "Nc1ncnc2c1ncn2[C@@H]1O[C@H](COP(=O)(O)OP(=O)(O)OP(=O)(O)O)[C@@H](O)[C@H]1O", "note": "[MgATP]", "values": [
      {"measurement": "Kd", "setting": "MgATP binding to the enzyme first", "value": "2.6 to 4.5", "unit": "µM"}
    ]}
  ]
}
